In US5401512A, “Delayed release oral dosage forms for treatment of intestinal disorders” (priority 1991, dated 1995):

Assays:
[1] = cited from earlier work; for Absorption before reaching the colon: oral administration, sulphapyridine and 5-ASA without the azo-bond
[2] = Total urinary excretion of 5-ASA and N-acetyl-5-ASA after single oral dose in seven healthy volunteers; assay type: in vivo, healthy volunteers (human); conditions: 7 volunteers
Method: (§1) Each of the batches of coated granules were separately packed into size 00 hard gelatin capsules (LOK-CAP, Eli Lilly) in an amount of 400 mg granules per capsule. The capsules were then spray coated with […] per capsule of a coating solution of the following formula: […]
(§2) Seven healthy volunteers were then each given blind on three separate occasions a single dose consisting of (a) 8 tablets of enteric coated 500 mg sulphasalazine tablets, (b) 8 of the enteric coated capsules containing the 20% Eudragit coated 5-ASA granules, and (c) 8 of the enteric coated capsules containing the 25% Eudragit coated 5-ASA granules. The serum levels of 5-ASA and N-acetyl-5-ASA at various times following administration were measured together with the total urinary excretion of 5-ASA and N-acetyl-5-ASA. In each case the values are given to three significant figures with 0 representing less than 2 ng/ml.

[3] = Serum levels of 5-ASA and N-acetyl-5-ASA after single oral dose in seven healthy volunteers; assay type: in vivo, healthy volunteers (human); conditions: 7 volunteers
Method: as §1
as §2, with “ng/ml. The following abbreviations are used:” for “ng/ml.”
Tmax =time for the maximum serum concentration in hours, median and interquartials ranges
Cmax =maximum serum concentration attained in ng/ml
Thalf =estimated biological half life of elimination
KE=estimated first order in elimination rate constant

Structure (SMILES) | Pharmacologically active agent in treatment of colonic disease with SASP ([1]; Khan et al, The Lancet 1977) | Absorption before reaching the colon [1] | Mean urinary excretion of 5-ASA ([2]; 5-ASA) [ng/mL] | Mean urinary excretion of N-Ac-5-ASA ([2]; N-Ac-5-ASA) [ng/mL] | Thalf (estimated biological half life of elimination) of 5-ASA ([3]; 5-ASA) | Thalf (estimated biological half life of elimination) of N-Ac-5-ASA ([3]; N-Ac-5-ASA)
Nc1ccc(O)c(C(=O)O)c1 [5-ASA, 5-amino-salicylic acid] | pharmacologically active agent | almost entirely absorbed from the small intestine before reaching the colon |  |  |  | 
O=C(O)c1cc(/N=N/c2ccc(S(=O)(=O)Nc3ccccn3)cc2)ccc1O [Sulphasalazine, Salicylazosulphapyridine] |  | only absorbed to a limited extent before reaching the colon | 0 ± 0 | 170 ± 35 | 19.4 ± 12.9 | 60.1 ± 50.1
Nc1ccc(S(=O)(=O)Nc2ccccn2)cc1 [sulphapyridine] |  | almost entirely absorbed from the small intestine before reaching the colon |  |  |  | 
